This is an account of results in PubChem BioAssay (NCI).

Some test systems named below: NCI-H23 lung; SK-OV-3 ovarian; K-562 leukemia; HT29 colon; OVCAR-3 ovarian; HOP-62 NSCLC; HCT-116 colon; NCI-H226 lung; U251 CNS; NCI/ADR-RES ovarian.
Common to all, as to assay: NCI tumour cell line growth inhibition, 48 h

Several values for one entry are separate records, joined by “and”; a condition that tells them apart may be missing. Identical values can stand only once.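 48-hour exposure; five concentrations; linearly interpolated endpoints. The concentration for 50% growth inhibition is given as GI50. Definition used: TGI = concentration required for complete inhibition of growth.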

As for `CC1CCC(=O)C(C(O)CC2CC(=O)N(c3ccccc3)C(=O)C2)C1` (stereo unspecified), the TGI in the assay on NCI-H23 lung, with SK-OV-3 ovarian, with K-562 leukemia, with HT29 colon, in the assay with OVCAR-3 ovarian and in the assay on HOP-62 NSCLC was over 100 µM throughout. The TGI in the assay on HCT-116 colon, in the assay with NCI-H226 lung and in the assay on U251 CNS was over 100 µM throughout.

Regarding `CCN(CC)CC(=O)NC1c2ccccc2Oc2c(C)cccc21` (stereo unspecified), the TGI in the assay on NCI-H23 lung, in the assay on SK-OV-3 ovarian, with K-562 leukemia, in the assay with HT29 colon, with HOP-62 NSCLC and with HCT-116 colon was over 100 µM throughout. The same compound showed a TGI in the assay with NCI-H226 lung of over 100 µM.

For the compound `CN(C)CCn1cnc2ncccc2c1=O`, the TGI with NCI-H23 lung, with SK-OV-3 ovarian, with K-562 leukemia, with HT29 colon, in the assay on OVCAR-3 ovarian and in the assay with HOP-62 NSCLC was over 100 µM each time. Also, the TGI with HCT-116 colon, in the assay with NCI-H226 lung and with U251 CNS was over 100 µM in each case.

On to `CC1=C(C(=O)NCc2ccccc2)C(c2ccccc2C)C(C(=O)NCc2ccccc2)=C(C)N1`, for which the TGI with NCI-H23 lung is over 93.6 µM; with SK-OV-3 ovarian, over 100 µM; in the assay with K-562 leukemia it was over 100 µM; in the assay on HT29 colon, 73 µM; in the assay with OVCAR-3 ovarian it was 45.5 µM; in the assay with HOP-62 NSCLC, 69.7 µM. The figures for the TGI with HCT-116 colon, in the assay with NCI-H226 lung and in the assay with U251 CNS were 37.6 µM, over 84.6 µM and 68.3 µM, respectively.

In the case of `O=C(CO[N+](=O)[O-])OC/C=C/c1ccccc1`, the TGI in the assay with NCI-H23 lung, in the assay with SK-OV-3 ovarian, in the assay with K-562 leukemia, in the assay on HT29 colon, with OVCAR-3 ovarian and with HOP-62 NSCLC was over 100 µM throughout. Besides, the TGI with HCT-116 colon, in the assay on NCI-H226 lung and in the assay on U251 CNS was over 100 µM in each case.

As to `Cc1ccc(-c2nc(N3CCNCC3)c3oc(-c4ccccc4)nc3n2)cc1`, the GI50 in the assay with NCI-H23 lung is 3.07 µM; in the assay on SK-OV-3 ovarian, 15.7 µM; with K-562 leukemia, 1.61 µM; in the assay with HT29 colon, 1.78 µM; with OVCAR-3 ovarian it was 1.96 µM; with HOP-62 NSCLC, 1.96 µM. Also, the GI50 was 1.85 µM with HCT-116 colon and 1.79 µM in the assay on U251 CNS. In addition, the TGI worked out at 16.7 µM with NCI-H23 lung; 29.5 µM with SK-OV-3 ovarian; 3.55 µM with K-562 leukemia; 3.32 µM with HT29 colon; 3.48 µM in the assay on OVCAR-3 ovarian; 4.48 µM in the assay with HOP-62 NSCLC. For the same compound, the TGI with HCT-116 colon was 3.29 µM; in the assay on U251 CNS, 3.24 µM.

In the case of `Clc1ccc(OCc2nnc3n2N=C(c2ccc(Br)cc2)CS3)cc1`, the TGI with NCI-H23 lung is over 100 µM; in the assay with SK-OV-3 ovarian it was 34.6 µM; in the assay on K-562 leukemia it was over 100 µM; with HT29 colon it was over 100 µM; in the assay on HCT-116 colon it was over 100 µM; with NCI-H226 lung, over 100 µM. The compound also came in with a TGI in the assay on U251 CNS of over 100 µM.

Take `COc1ccc(S(=O)(=O)N[C@H](C(=O)O)c2ccccc2)cc1`: the TGI in the assay with NCI-H23 lung, in the assay on SK-OV-3 ovarian, with K-562 leukemia, with HT29 colon, in the assay with OVCAR-3 ovarian and with HOP-62 NSCLC was over 100 µM each time. The TGI with HCT-116 colon, with NCI-H226 lung and with U251 CNS was over 100 µM throughout.

As to `CCCCCCCCCCCCCCCCc1c(C(=O)OC)nc(NN)[nH]c1=O`, the TGI with NCI-H23 lung, in the assay with SK-OV-3 ovarian, in the assay on K-562 leukemia, with HT29 colon, with OVCAR-3 ovarian and in the assay on HOP-62 NSCLC was over 50 µM each time. For the same compound, the TGI with HCT-116 colon and in the assay on U251 CNS was over 50 µM in each case.

As for `COc1cc(-c2ccc(NC(=O)SCCC(=O)O)cc2OC)ccc1NC(=O)SCCC(=O)O`, the TGI with NCI-H23 lung, with K-562 leukemia, in the assay on HT29 colon, with OVCAR-3 ovarian, in the assay with HOP-62 NSCLC and in the assay with HCT-116 colon was over 100 µM each time. Moreover, the TGI in the assay with NCI-H226 lung and in the assay on U251 CNS was over 100 µM each time.

For `COC1[C@H](NC(=O)OC(C)(C)C)C(=O)N1Cc1ccccc1` (stereo partly specified), the TGI in the assay with NCI-H23 lung, in the assay on SK-OV-3 ovarian, in the assay with K-562 leukemia, with HT29 colon, with OVCAR-3 ovarian and with HOP-62 NSCLC was over 100 µM each time. In addition, the TGI in the assay on HCT-116 colon, in the assay on NCI-H226 lung and with U251 CNS was over 100 µM each time.

For `CCCCCCCCCCSC(=O)NC`, the TGI in the assay with NCI-H23 lung is 99.8 µM; in the assay on SK-OV-3 ovarian it was over 100 µM; in the assay with K-562 leukemia, 67.7 µM; with HT29 colon, 77 µM; with OVCAR-3 ovarian, over 100 µM; with U251 CNS, 68.4 µM.

Take `CCOc1ccc(OCC)c([P+](c2ccccc2)(c2ccccc2)c2ccccc2)c1`: the TGI came to 1.17 µM with NCI-H23 lung; 17 µM in the assay on K-562 leukemia; 12.9 µM in the assay with HT29 colon; 2.74 µM in the assay on OVCAR-3 ovarian; 3.92 µM in the assay on HOP-62 NSCLC; 11.8 µM with HCT-116 colon. For the same compound, the TGI worked out at 3.24 µM in the assay on NCI-H226 lung and 10.8 µM with U251 CNS.

In the case of `CCOC(=O)C(NO)C(Sc1ccccc1)c1ccc(OC)cc1` (stereo unspecified), the TGI in the assay on NCI-H23 lung, in the assay with SK-OV-3 ovarian, in the assay on HT29 colon, in the assay with OVCAR-3 ovarian, in the assay with HOP-62 NSCLC and with HCT-116 colon was over 100 µM each time. Besides, the TGI in the assay on NCI-H226 lung and with U251 CNS was over 100 µM in each case.

As for `CC(=O)OC(C)(C)/C=C/C(=O)[C@](C)(O)[C@H]1[C@H](O)C[C@@]2(C)[C@@H]3CC=C4[C@@H](C=C(O)C(=O)C4(C)C)[C@]3(C)C(=O)C[C@]12C`, the TGI in the assay with K-562 leukemia is 4.97 µM and 9.17 µM and 14 µM; in the assay with HCT-116 colon, 1.39 µM [middle of 4 runs]; with NCI-H226 lung it was 93.7 nM [middle of 4 runs]; in the assay on NCI/ADR-RES ovarian, 5.45 µM and 6.12 µM and 5.39 µM.
